Assay results published in EP1027349B1, “TETRAHYDROFURAN PHOSPHATE- AND HYDROXY ESTERS, AS PRODRUGS FOR THE CORRESPONDING ANTIFUNGAL AGENT” (SCHERING CORPORATION, priority 1997, dated 1999).

Assays:
[1] = Plasma concentrations and PK parameters of the compound of formula IV in mice after intravenous administration of di-NMG salt prodrugs; assay type: in vivo, mouse; parameters: AUC: unit not given here; settings: for Concentrations of the compound of formula IV in pooled mouse plasma, Pool 1 / Concentrations of the compound of formula IV in pooled mouse plasma, Pool 2: 2 mice/pool; for AUC: Table 3 summary: area under the curve from time zero to 24 hrs of the compound of formula IV in mouse plasma; for AUC / Bioavallability: intravenous, 20 mg/kg formula IV dose equivalent of the di-NMG salt in sterile water; for Bioavallability: of the compound of formula IV in mouse plasma
[2] = system: Aspergillus species (n=30); assay: In vitro antifungal activity (MIC), Espinel-Ingroff's methodology; settings: for MIC Range: Aspergillus species (n=30); for MIC: Aspergillus, read-out: G mean MICs
Candida species (n=41) = assay: In vitro antifungal activity (MIC), NCCLS standard M27A; settings: for MIC Range: Candida species (n=41); for MIC: Candida, read-out: G mean MICs
[3] = system: Cryptococcus neoformans (n=9); assay: as above; settings: for MIC Range: Cryptococcus neoformans (n=9); for MIC: Cryptococcus neoformans, read-out: G mean MICs
[4] = Antifungal activity in in vivo tests in mice; settings: compared with itraconazole, fluconazole and azoles of USP 5,039,676 and WO 93/09114, result in words
[5] = Pharmacokinetic (metabolism) studies in human tissues and serum; assay type: in vitro ADME; settings: result in words
Aspergillus fumigatus = assay: Pulmonary Aspergillus fumigatus infection model in mice (Loebenberg et al.)
[6] = 0.017 hr (1 min) after intravenous administration of 20 mg/kg compound of formula IV dose equivalent of the di-NMG salt in sterile water
[7] = 0.017 hr (1 min) after intravenous administration of 20 mg/kg compound of formula IV dose equivalent of the di-NMG salt in sterile water, mean of 2 pools
[8] = 0.05 hr (3 min) after intravenous administration of 20 mg/kg compound of formula IV dose equivalent of the di-NMG salt in sterile water
[9] = 0.05 hr (3 min) after intravenous administration of 20 mg/kg compound of formula IV dose equivalent of the di-NMG salt in sterile water, mean of 2 pools
[10] = 0.083 hr (5 min) after intravenous administration of 20 mg/kg compound of formula IV dose equivalent of the di-NMG salt in sterile water
[11] = 0.083 hr (5 min) after intravenous administration of 20 mg/kg compound of formula IV dose equivalent of the di-NMG salt in sterile water, mean of 2 pools
[12] = 0.25 hr (15 min) after intravenous administration of 20 mg/kg compound of formula IV dose equivalent of the di-NMG salt in sterile water
[13] = 0.25 hr (15 min) after intravenous administration of 20 mg/kg compound of formula IV dose equivalent of the di-NMG salt in sterile water, mean of 2 pools
[14] = 0.5 hr (30 min) after intravenous administration of 20 mg/kg compound of formula IV dose equivalent of the di-NMG salt in sterile water
[15] = 0.5 hr (30 min) after intravenous administration of 20 mg/kg compound of formula IV dose equivalent of the di-NMG salt in sterile water, mean of pools
[16] = 1 hr. after intravenous administration of 20 mg/kg compound of formula IV dose equivalent of the di-NMG salt in sterile water
[17] = 1 hr. after intravenous administration of 20 mg/kg compound of formula IV dose equivalent of the di-NMG salt in sterile water, mean of 2 pools
[18] = 3 hr. after intravenous administration of 20 mg/kg compound of formula IV dose equivalent of the di-NMG salt in sterile water
[19] = 3 hr. after intravenous administration of 20 mg/kg compound of formula IV dose equivalent of the di-NMG salt in sterile water, mean of 2 pools
[20] = 6 hr. after intravenous administration of 20 mg/kg compound of formula IV dose equivalent of the di-NMG salt in sterile water
[21] = 6 hr. after intravenous administration of 20 mg/kg compound of formula IV dose equivalent of the di-NMG salt in sterile water, mean of 2 pools
[22] = 24 hr. after intravenous administration of 20 mg/kg compound of formula IV dose equivalent of the di-NMG salt in sterile water
[23] = 24 hr. after intravenous administration of 20 mg/kg compound of formula IV dose equivalent of the di-NMG salt in sterile water, mean of 2 pools

Compound | Concentrations of the compound of formula IV in pooled mouse plasma, Pool 1 [1, 6] [ng/mL] | Concentrations of the compound of formula IV in pooled mouse plasma, Pool 2 [1, 6] [ng/mL] | Concentrations of the compound of formula IV in pooled mouse plasma, Mean [1, 7] [ng/mL] | Concentrations of the compound of formula IV in pooled mouse plasma, Pool 1 [1, 8] [ng/mL] | Concentrations of the compound of formula IV in pooled mouse plasma, Pool 2 [1, 8] [ng/mL] | Concentrations of the compound of formula IV in pooled mouse plasma, Mean [1, 9] [ng/mL] | Concentrations of the compound of formula IV in pooled mouse plasma, Pool 1 [1, 10] [ng/mL] | Concentrations of the compound of formula IV in pooled mouse plasma, Pool 2 [1, 10] [ng/mL] | Concentrations of the compound of formula IV in pooled mouse plasma, Mean [1, 11] [ng/mL] | Concentrations of the compound of formula IV in pooled mouse plasma, Pool 1 [1, 12] [ng/mL] | Concentrations of the compound of formula IV in pooled mouse plasma, Pool 2 [1, 12] [ng/mL] | Concentrations of the compound of formula IV in pooled mouse plasma, Mean [1, 13] [ng/mL] | Concentrations of the compound of formula IV in pooled mouse plasma, Pool 1 [1, 14] [ng/mL] | Concentrations of the compound of formula IV in pooled mouse plasma, Mean [1, 15] [ng/mL] | Concentrations of the compound of formula IV in pooled mouse plasma, Pool 1 [1, 16] [ng/mL] | Concentrations of the compound of formula IV in pooled mouse plasma, Pool 2 [1, 16] [ng/mL] | MIC [2] [µg/mL] | MIC (Candida species (n=41)) [µg/mL] | MIC Range [3] [µg/mL] | MIC [3] [µg/mL] | further results
CC[C@@H]([C@H](C)OC(=O)CCCOP(=O)(O)O)n1ncn(-c2ccc(N3CCN(c4ccc(OC[C@@H]5CO[C@@](Cn6cncn6)(c6ccc(F)cc6F)C5)cc4)CC3)cc2)c1=O [Formula II.2NMG] | 171 | 164 | 168 | 378 | 297 | 338 | 798 | 817 | 808 | 1570 | 2720 | 2150 | 3020 | 2680 | 4460 | 3950 | – | – | – | – | Concentrations of the compound of formula IV in pooled mouse plasma, Pool 2 [1, 14]: 2340 ng/mL; Concentrations of the compound of formula IV in pooled mouse plasma, Mean [1, 17]: 4210 ng/mL; Concentrations of the compound of formula IV in pooled mouse plasma, Pool 1 [1, 18]: 5160 ng/mL; Concentrations of the compound of formula IV in pooled mouse plasma, Pool 2 [1, 18]: 5630 ng/mL; Concentrations of the compound of formula IV in pooled mouse plasma, Mean [1, 19]: 5400 ng/mL; Concentrations of the compound of formula IV in pooled mouse plasma, Pool 1 [1, 20]: 5960 ng/mL; Concentrations of the compound of formula IV in pooled mouse plasma, Pool 2 [1, 20]: 3590 ng/mL; Concentrations of the compound of formula IV in pooled mouse plasma, Mean [1, 21]: 4780 ng/mL; Concentrations of the compound of formula IV in pooled mouse plasma, Pool 1 [1, 22]: 915 ng/mL; Concentrations of the compound of formula IV in pooled mouse plasma, Pool 2 [1, 22]: 992 ng/mL; Concentrations of the compound of formula IV in pooled mouse plasma, Mean [1, 23]: 954 ng/mL; AUC [1]: 79.1; Bioavallability [1]: 65%
CC[C@@H]([C@H](C)OC(=O)CCCO)n1ncn(-c2ccc(N3CCN(c4ccc(OC[C@@H]5CO[C@@](Cn6cncn6)(c6ccc(F)cc6F)C5)cc4)CC3)cc2)c1=O [Formula III, 2(S)-[4-{4-{4-{4-[[(R-Cis) -2-(2,4-difluorophenyl)-tetrahydro-2-(1H-1,2,4-triazol-1-ylmethyl)-4-furanyl]methoxy]phenyl]-1-piperazinyl]phenyl]-4,5-dihydro-5-oxo-1H-1,2,4-triazol-1-yl]-1-(S)-methylbutyl-4-hydroxy-butanoate] | – | – | – | – | – | – | – | – | – | – | – | – | – | – | – | – | 0.2 | 0.3 | 0.0156 to 0.5 | 0.09 | MIC Range [2]: 0.0313 to 2 µg/mL; MIC Range (Candida species (n=41)): ≤ 0.0156 to 8 µg/mL; antifungal activity in in vivo tests [4]: unexpectedly better than that of existing antifungal agents
CC[C@@H]([C@H](C)OC(=O)CCCOP(=O)(O)O)n1ncn(-c2ccc(N3CCN(c4ccc(OC[C@@H]5CO[C@@](Cn6cncn6)(c6ccc(F)cc6F)C5)cc4)CC3)cc2)c1=O [Formula II] | – | – | – | – | – | – | – | – | – | – | – | – | – | – | – | – | 5.9 | 7.5 | 0.125 to 32 | 1.9 | metabolism [5]: metabolized to the compound of formula IV via the metabolite represented by formula III; survival (Aspergillus fumigatus; doses of 10 mg/kg, mice with a pulmonary Aspergillus fumigatus infection): 70%
CC[C@@H]([C@H](C)O)n1ncn(-c2ccc(N3CCN(c4ccc(OC[C@@H]5CO[C@@](Cn6cncn6)(c6ccc(F)cc6F)C5)cc4)CC3)cc2)c1=O [Formula IV, reference compound] | – | – | – | – | – | – | – | – | – | – | – | – | – | – | – | – | 0.1 | 0.2 | ≤0.0150 to 0.5 | 0.04 | MIC Range [2]: ≤0.0156 to 1 µg/mL; MIC Range (Candida species (n=41)): ≤0.0156 to 8 µg/mL; antifungal activity in in vivo tests [4]: unexpectedly better than that of existing antifungal agents
CC[C@@H]([C@H](C)OC(=O)CCCCOP(=O)(O)O)n1ncn(-c2ccc(N3CCN(c4ccc(OC[C@@H]5CO[C@@](Cn6cncn6)(c6ccc(F)cc6F)C5)cc4)CC3)cc2)c1=O [Formula V.2NMG, reference compound] | 0 | 0 | 0 | 738 | 663 | 723 | 1040 | 1430 | 1240 | 1220 | 407 | 814 | 1990 | 1990 | 2730 | 2630 | – | – | – | – | Concentrations of the compound of formula IV in pooled mouse plasma, Mean [1, 17]: 2680 ng/mL; Concentrations of the compound of formula IV in pooled mouse plasma, Pool 1 [1, 18]: 923 ng/mL; Concentrations of the compound of formula IV in pooled mouse plasma, Pool 2 [1, 18]: 2510 ng/mL; Concentrations of the compound of formula IV in pooled mouse plasma, Mean [1, 19]: 1720 ng/mL; Concentrations of the compound of formula IV in pooled mouse plasma, Pool 1 [1, 20]: 2590 ng/mL; Concentrations of the compound of formula IV in pooled mouse plasma, Pool 2 [1, 20]: 1900 ng/mL; Concentrations of the compound of formula IV in pooled mouse plasma, Mean [1, 21]: 2250 ng/mL; Concentrations of the compound of formula IV in pooled mouse plasma, Pool 1 [1, 22]: 447 ng/mL; Concentrations of the compound of formula IV in pooled mouse plasma, Pool 2 [1, 22]: 515 ng/mL; Concentrations of the compound of formula IV in pooled mouse plasma, Mean [1, 23]: 481 ng/mL; AUC [1]: 36.7; Bioavallability [1]: 30%
OC(Cn1cncn1)(Cn1cncn1)c1ccc(F)cc1F [fluconazole, reference compound] | – | – | – | – | – | – | – | – | – | – | – | – | – | – | – | – | – | – | – | – | activity in Aspergillus pulmonary infection model (Aspergillus fumigatus; mice, result in words): inactive
